How the values were obtained:
[1] = Hydrodynamic size, polydispersity index and zeta potential of dendrimer, lipid and mRNA complexes; assay type: physicochemical; conditions: DOTMA/DOPE w/w 10:1 to mRNA; for Hydrodynamic size: dendrimer, lipid and mRNA complexes
Protocol: The hydrodynamic size, polydispersity index and Zeta potential was determined for a set of the dendrimers disclosed in Tables 1 and 2.

HeLa cells = experiment: mRNA (eGFP) transfection with peptide dendrimers and DOTMA/DOPE in full growth medium; assay type: cell-based, human; conditions: HeLa; full growth medium; DOTMA/DOPE w/w 10:1 to mRNA; relative to G1,2-RL, 3-LR
Protocol: FIG. 28. mRNA transfection of the peptide dendrimers with lipid system in vitro. […] The mRNA used expressed an eGFP reporter gene. Following a 24 hour transfection, the cells were harvested to assay the eGFP expression. The eGFP expression was normalised with the total amount of protein of each transfection. The gene expression level was calculated by normalising the transfection value of the G1,2-RL, 3-LR, DOTMA/DOPE & mRNA treated cells. 1st, 2nd and 3rd generation dendrimers with varying cores and 1st, 2nd, and 3rd generation peptide motifs can transfect cells with mRNA effectively under the tested conditions.
FIG. 29. mRNA transfection of the peptide dendrimers with lipid system in vitro. HeLa cells were transfected with mRNA alone or mRNA with peptide dendrimers and DOTMA/DOPE (w/w=10:1 to mRNA). The N:P ratio of G1,2-RL,3-LR was at 0.16:1 while the N:P ratios of all other dendrimers at 8:1. The mRNA used expressed an eGFP reporter gene. Following a 24 hour transfection, the cells were harvested to assay the eGFP expression. The eGFP expression was normalised with the total amount of protein of each transfection. The gene expression level was calculated by normalising the transfection value of the G1,2-RL, 3-LR, DOTMA/DOPE & mRNA treated cells. 1st, 2nd and 3rd generation dendrimers with varying cores and 1st, 2nd, and 3rd generation peptide motifs can transfect cells with mRNA effectively under the tested conditions.
The effect on the number of generations of dendrimers on mRNA delivery was studied by transfecting HeLa cells in full growth medium conditions.

Substance	Polydispersity Index (PDI) ([1]; N:P 0.16:1)	Zeta Potential ([1]; N:P 0.16:1)	Polydispersity Index (PDI) ([1]; N:P 8:1)	Zeta Potential ([1]; N:P 8:1)	Hydrodynamic size ([1]; N:P 0.16:1)	Hydrodynamic size ([1]; N:P 8:1)	mRNA transfection efficiency (eGFP), in words (HeLa cells)
(R)8(KRL)4(KRLR)2KRHC-NH2 [RHCG1-RLR, 2-RL, 3-R]	0.219	36 mV	0.429	59 mV	119 nm	83 nm	
(YR)8(KRT)4(KRQ)2KGSC-NH2 [G1-RQ, 2-RT, 3-YR]	0.135	41 mV	0.409	54 mV	130 nm	100 nm	
(LRLR)8(KLRLR)4(KLRLR)2KGSC-NH2 [G1,2,3-LRLR]	0.133	45 mV	0.287	50 mV	130 nm	80 nm	
(QR)8(KRT)4(KRY)2KGSC-NH2 [G1-RY, 2-RT, 3-QR]	0.16	42 mV	0.178	52 mV	126 nm	95 nm	
(WR)8(KRM)4(KRF)2KGSC-NH2 [G1-RF, 2-RM, 3-WR]	0.125	41 mV	0.277	51 mV	142 nm	80 nm	
(R)2KRHC-NH2 [RHCG1-R]	0.123	33 mV	0.566	45 mV	129 nm	366 nm	can transfect cells effectively
(LR)8(KRL)4(KRL)2KA-NH2 [KAG1,2-RL, 3-LR]	0.136	47 mV	0.184	51 mV	125 nm	76 nm	
(RLR)2KRHC-NH2 [RHCG1-RLR]	0.363	41 mV	0.766		105 nm	183 nm	
(LR)8(DabRL)4(DabRL)2DabGSC-NH2 [DabG1,2-RL, 3-LR]	0.117	34 mV	0.286	57 mV	124 nm	78 nm	
(LRLR)4(KLRLR)2KGSC-NH2 [G1,2-LRLR]	0.181	41 mV	0.189	53 mV	130 nm	92 nm	
(HK)8(KKH)4(KKL)2KGSC-NH2 [G1-KL, 2-KH, 3-HK]	0.237	35 mV	0.126	49 mV	131 nm	103 nm	
(LR)8(KRL)4(KRL)2KRFW-NH2 [RFWG1,2-RL, 3-LR]	0.152	39 mV	0.401	55 mV	120 nm	91 nm	
(LR)2KRHC-NH2 [RHCG1-LR]	0.107	40 mV	0.577	35 mV	129 nm	326 nm	can transfect cells effectively
(R)8(KR)4(KR)2KRHC-NH2 [RHCG1,2,3-R]	0.173	43 mV	0.396	62 mV	125 nm	70 nm	
(MR)8(KRC)4(KRC)2KGSC-NH2 [G1-RC, 2-RC, 3-MR]	0.148	43 mV	0.19	56 mV	121 nm	87 nm	
(LRLR)2KGSC-NH2 [G1-LRLR]	0.264	40 mV	0.581	49 mV	122 nm	250 nm	

Substance	Polydispersity Index (PDI) ([1]; N:P 0.16:1)	Zeta Potential ([1]; N:P 0.16:1)	Polydispersity Index (PDI) ([1]; N:P 8:1)	Zeta Potential ([1]; N:P 8:1)	Hydrodynamic size ([1]; N:P 0.16:1)	Hydrodynamic size ([1]; N:P 8:1)	mRNA transfection efficiency (eGFP), in words (HeLa cells)
(RL)8(KRL)4(KLR)2KGSC-NH2 [G1-LR,2,3-RL]	0.136	41 mV	0.417	53 mV	132 nm	80 nm	
(lR)8(KrL)4(kRl)2KGSC-NH2 [G1-Rl, 2-rL, 3-lR]	0.22	42 mV	0.241	56 mV	135 nm	74 nm	
(RLR)4(KRLR)2KRHC-NH2 [RHCG1,2-RLR]	0.154	39 mV	0.214		116 nm	83 nm	
(LR)8(KRL)4(KRE)2KGSC-NH2 [G1-RE, 2-RL, 3-LR]	0.096	45 mV	0.158	53 mV	134 nm	96 nm	
(LR)8(KR)4(KRLRL)2KRHC-NH2 [RHCG1-RLRL, 2-R, 3-LR]	0.131	43 mV	0.37	56 mV	135 nm	78 nm	
(lr)8(Krl)4(Krl)2Kgsc-NH2 [LK-G1,2-rl, 3-lr]	0.16	45 mV	0.251	53 mV	132 nm	74 nm	
(LR)8(KRL)4(KRL)2KRHC-NH2 [RHCG1,2-RL,3-LR]	0.11	44 mV	0.363	50 mV	134 nm	58 nm	
(RL)8(KLR)4(KLR)2KGSC-NH2 [G1,2-LR,3-RL]	0.144	32 mV	0.242	54 mV	137 nm	89 nm	
(RLR)8(KRLR)4(KRLR)2KRHC-NH2 [RHCG1,2,3-RLR]	0.154	42 mV	0.299	56 mV	130 nm	73 nm	
(BR)8(KRB)4(KRX)2KGSC-NH2 [G1-RX, 2-RB, 3-BR]	0.108	41 mV	0.403	56 mV	130 nm	70 nm	
(LR)8(KRL)4(KRL)2KYM-NH2 [YMG1,2-RL, 3-LR]	0.116	35 mV	0.213	56 mV	117 nm	73 nm	
(LR)8(KRL)4(KRL)2KRYM-NH2 [RYMG1,2-RL, 3-LR]	0.137	43 mV	0.257	56 mV	133 nm	68 nm	
(lr)8(krl)4(krl)2kgsc-NH2 [D-G1,2-rl, 3-lr]	0.148	43 mV	0.246	53 mV	134 nm	73 nm	
(FR)8(KRQ)4(KRW)2KGSC-NH2 [G1-RW, 2-RQ, 3-FR]	0.146	37 mV	0.452	51 mV	133 nm	105 nm	
(LR)8(KR)4(KRLR)2KRHC-NH2 [RHCG1-RLR, 2-R, 3-LR]	0.136	41 mV	0.439	59 mV	121 nm	75 nm	

From patent publication US20240108753A1, “NUCLEIC ACID DELIVERY” (NUNTIUS THERAPEUTICS LIMITED, priority 2021, published 2024)
